In US11696928B2, “Compounds and use thereof in the expansion of stem cells and/or progenitor cells” (UNIVERSITE DE MONTREAL, priority 2017, dated 2023):
pIC50: −log10 of the molar value.

Key:
[1] = tested on: Human CD34+ cord blood (CB) cells; experiment: CD34+ activity assessment (7-day expansion of pre-expanded CD34+ cells, flow cytometry); type: cell-based; details: concentration at which compound/vehicle ratio of CD34+ cell number is >= 1.5; 7 days, with 35 nM UM0128171; Table 1
AhR = biological target: T1, AhR (Homo sapiens, UniProt P35869); experiment: Inhibition of AhR-mediated gene transcription (HEK-XRE 11.1 luciferase reporter, MeBIO induction); type: cell-based; details: HEK-XRE 11.1 cells, MeBIO 0.1 nM, luminescence after 24 hours; Table 1
T1 construct: One of the resultant clones was named HEK-XRE 11.1, and used in the reporter gene assays; endogenous in cells; host or cells: HEK-XRE 11.1 (HEK cells stably carrying the AhR-responsive luciferase reporter X4-4.27 and phRL-CMV)
T1 sequence (P35869 11-848): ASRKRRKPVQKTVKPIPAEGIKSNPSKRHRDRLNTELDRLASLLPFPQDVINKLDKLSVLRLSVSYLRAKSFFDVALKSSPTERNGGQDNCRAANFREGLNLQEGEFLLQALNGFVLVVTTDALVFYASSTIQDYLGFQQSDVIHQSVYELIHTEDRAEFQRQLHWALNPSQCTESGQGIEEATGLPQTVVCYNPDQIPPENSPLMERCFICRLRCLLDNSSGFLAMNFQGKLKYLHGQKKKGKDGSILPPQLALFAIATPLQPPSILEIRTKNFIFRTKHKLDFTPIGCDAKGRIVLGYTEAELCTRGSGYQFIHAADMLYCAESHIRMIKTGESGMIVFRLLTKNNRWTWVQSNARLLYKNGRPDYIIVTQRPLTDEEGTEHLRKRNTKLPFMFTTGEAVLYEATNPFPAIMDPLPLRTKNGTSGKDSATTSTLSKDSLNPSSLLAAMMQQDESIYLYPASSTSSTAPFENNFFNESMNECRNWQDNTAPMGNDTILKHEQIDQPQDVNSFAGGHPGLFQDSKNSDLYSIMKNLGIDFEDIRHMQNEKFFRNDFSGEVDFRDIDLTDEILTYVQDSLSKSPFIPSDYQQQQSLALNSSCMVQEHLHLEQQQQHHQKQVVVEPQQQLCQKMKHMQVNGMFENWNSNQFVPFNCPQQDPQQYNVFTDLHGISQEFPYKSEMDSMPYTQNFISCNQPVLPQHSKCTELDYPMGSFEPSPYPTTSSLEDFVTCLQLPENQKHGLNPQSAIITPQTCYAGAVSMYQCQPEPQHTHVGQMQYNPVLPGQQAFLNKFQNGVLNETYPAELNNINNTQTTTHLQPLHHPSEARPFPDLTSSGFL
How it was run: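 HEK-XRE 11.1 cells, stably carrying an AhR-responsive firefly luciferase reporter, were stimulated with 0.1 nM MeBIO and given compounds in 8-point 1:3 serial dilutions from 10 mM (stock-range figure) in duplicate. Luminescence was read after 24 h culture without Renilla normalisation. Dose-response curves were fitted by nonlinear regression.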

[2] = tested on: Human CD34+ cord blood (CB) cells; experiment: Assessment of cell composition in vitro (7-day culture of CB CD34+ cells); details: for expansion of CD34+CD45RA+ cells: alone or in combination with UM171, 7 days, FIGS. 1B, 1C and 1D; for overall percentage of CD34+ cells in cultures: combined use with UM171, 7 days, FIG. 1A right panel and FIG. 1D; for percentage of Dendritic Cells and Mast Cells: combined use with UM171, compared to Compounds used alone, FIG. 1D
[3] = tested on: Human CD34+ cord blood (CB) cells; experiment: Assessment of engraftment and myeloid vs lymphoid lineage contribution in vivo; parameters: species or system NSG mice

COc1ccc(NC(=O)c2sc3ncc(C)cc3c2N)cc1 [Compound 1114]
EC1.5 [1]: <100 nM
pIC50 (AhR): > 7.30
expansion of CD34+CD45RA+ cells [2]: favors the expansion of CD34+CD45RA+ cells
overall percentage of CD34+ cells in cultures [2]: increased the overall percentage of CD34+ cells
percentage of Dendritic Cells and Mast Cells [2]: increased the percentage of Dendritic Cells and Mast Cells

Nc1c(C(=O)Nc2ccccc2)sc2nc3c(cc12)CCC3 [Compound 1001]
EC1.5 [1]: <100 nM
pIC50 (AhR): > 7.30
engraftment of expanded CB cells in the long term (12 and 20 weeks post transplantation) ([3]; CB cells expanded 7 days, alone or in combination with UM171, NSG mice bone marrow, FIG. 2A): engrafted with higher efficiency in the long term
contribution of lymphoid lineage ([3]; engrafted human CB cells in NSG mice, FIG. 2B): greatly increased
number of CD34+ cells in CB cultures ([2]; 7 days culture, compared to other conditions, FIG. 1A middle): increases the number of CD34+ cells
expansion of CD34+CD45RA+ cells [2]: favors the expansion of CD34+CD45RA+ cells
overall percentage of CD34+ cells in cultures [2]: increased the overall percentage of CD34+ cells
percentage of Dendritic Cells and Mast Cells [2]: increased the percentage of Dendritic Cells and Mast Cells

Nc1c(C(=O)Nc2ccccc2)sc2ccc(C(F)(F)F)cc12 [Compound 1034]
EC1.5 [1]: 100 to 1000 nM
pIC50 (AhR): > 7.30

Nc1c(C(=O)Nc2cncnc2)sc2ncc(C(F)(F)F)cc12 [Compound 1109]
EC1.5 [1]: >5000 nM
pIC50 (AhR): < 6.30

Nc1c(C(=O)Nc2cccnc2)sc2ccc(C(F)(F)F)cc12 [Compound 1067]
EC1.5 [1]: 1000 to 5000 nM
pIC50 (AhR): > 7.30

Nc1c(C(=O)Nc2cccc(Br)c2)sc2ncc(C(F)(F)F)cc12 [Compound 1036]
EC1.5 [1]: 100 to 1000 nM
pIC50 (AhR): > 7.30

Nc1c(C(=O)Nc2ccc(Cl)c(O)c2)sc2ncc(C(F)(F)F)cc12 [Compound 1097]
EC1.5 [1]: 1000 to 5000 nM
pIC50 (AhR): < 6.30

Nc1c(C(=O)Nc2ccc(F)cc2)sc2nc3c(cc12)CCCC3 [Compound 1106]
EC1.5 [1]: 1000 to 5000 nM
pIC50 (AhR): 6.30 to 7.30

Nc1c(C(=O)Nc2cccc(-c3ccccc3)c2)sc2ncc(C(F)(F)F)cc12 [Compound 1059]
EC1.5 [1]: 1000 to 5000 nM
pIC50 (AhR): 6.30 to 7.30

Nc1c(C(=O)Nc2ccc(Cl)cc2)sc2cnc(C(F)(F)F)cc12 [Compound 1051]
EC1.5 [1]: 1000 to 5000 nM
pIC50 (AhR): 6.30 to 7.30

Nc1c(C(=O)Nc2ccc3c(c2)OCCO3)sc2ccc(C(F)(F)F)cc12 [Compound 1146]
EC1.5 [1]: >5000 nM
pIC50 (AhR): 6.30 to 7.30

Nc1c(C(=O)Nc2ccc(F)cc2)sc2ccc(C(F)(F)F)cc12 [Compound 1089]
EC1.5 [1]: 100 to 1000 nM
pIC50 (AhR): > 7.30

Nc1c(C(=O)Nc2ccc(F)c(F)c2)sc2ncc(C(F)(F)F)cc12 [Compound 1075]
EC1.5 [1]: 100 to 1000 nM
pIC50 (AhR): > 7.30
